ChEMBL document CHEMBL4673225, “Highly Selective PTK2 Proteolysis Targeting Chimeras to Probe Focal Adhesion Kinase Scaffolding Functions” (J Med Chem, 2019)
Activity calls are given as the source filed them. No cut-off for these calls is given here.

Legend:
[1] = tested on: SNU-387; test: Antiproliferative activity against human SNU-387 cells incubated for 7 to 14 days by methylene blue dye based anchorage independent growth assay; assay type: functional, cell-based; details: time 7-14 day
[2] = biological target: T1, von Hippel-Lindau disease tumor suppressor/Focal adhesion kinase 1 (Homo sapiens, UniProt Q05397+P40337); test: Protac activity at VHL/PTK2 in human HLE cells assessed as induction of PTK2 degradation incubated for 18 hrs by protein capillary electrophoresis method; assay type: cell-based
Target sequence in this assay (Q05397 whole entry): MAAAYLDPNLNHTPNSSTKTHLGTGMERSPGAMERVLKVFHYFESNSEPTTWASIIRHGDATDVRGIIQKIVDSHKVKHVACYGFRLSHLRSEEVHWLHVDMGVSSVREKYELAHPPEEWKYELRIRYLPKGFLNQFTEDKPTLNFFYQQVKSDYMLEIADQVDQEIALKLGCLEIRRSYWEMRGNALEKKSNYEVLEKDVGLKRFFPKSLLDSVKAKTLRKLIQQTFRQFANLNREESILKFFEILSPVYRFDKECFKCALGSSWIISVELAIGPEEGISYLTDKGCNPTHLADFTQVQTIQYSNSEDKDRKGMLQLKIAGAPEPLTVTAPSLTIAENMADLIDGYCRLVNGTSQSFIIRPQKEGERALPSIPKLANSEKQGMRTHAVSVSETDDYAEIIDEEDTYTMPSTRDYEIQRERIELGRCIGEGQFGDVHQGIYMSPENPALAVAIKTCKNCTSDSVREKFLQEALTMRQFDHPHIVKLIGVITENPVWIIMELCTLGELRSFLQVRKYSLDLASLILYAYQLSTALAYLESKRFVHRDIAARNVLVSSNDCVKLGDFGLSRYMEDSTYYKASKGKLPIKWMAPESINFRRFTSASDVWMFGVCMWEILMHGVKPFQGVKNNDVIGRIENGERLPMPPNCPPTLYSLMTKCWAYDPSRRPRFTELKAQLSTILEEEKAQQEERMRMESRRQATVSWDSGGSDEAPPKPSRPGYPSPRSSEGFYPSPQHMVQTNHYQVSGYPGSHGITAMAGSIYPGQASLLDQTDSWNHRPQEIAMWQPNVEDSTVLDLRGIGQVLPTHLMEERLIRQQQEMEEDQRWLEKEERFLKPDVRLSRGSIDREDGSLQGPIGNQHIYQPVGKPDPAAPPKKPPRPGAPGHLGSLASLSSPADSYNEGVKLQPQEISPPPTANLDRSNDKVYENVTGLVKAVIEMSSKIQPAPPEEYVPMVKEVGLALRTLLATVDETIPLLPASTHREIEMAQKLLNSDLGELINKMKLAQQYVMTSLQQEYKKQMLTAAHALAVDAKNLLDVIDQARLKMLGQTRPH
Target sequence in this assay (P40337 whole entry): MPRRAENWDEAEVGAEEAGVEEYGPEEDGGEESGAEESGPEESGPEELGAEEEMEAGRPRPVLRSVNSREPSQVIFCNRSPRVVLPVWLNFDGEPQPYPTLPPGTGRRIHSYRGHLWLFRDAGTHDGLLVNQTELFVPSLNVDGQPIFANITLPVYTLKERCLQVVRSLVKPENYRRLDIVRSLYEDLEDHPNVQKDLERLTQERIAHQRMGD

[3] = tested on: HuCCT-1; test: cells; details: Homo sapiens, HuCCT-1, 144 h, read-out: pIC50 (converted)
Description: Antiproliferative activity against human HuCCT-1 cells incubated for 6 days by CellTiter-Glo luminescent cell viability assay

[4] = tested on: HLE; test: Antiproliferative activity against human HLE cells incubated for 7 to 14 days by methylene blue dye based anchorage independent growth assay; assay type: functional, cell-based; details: time 7-14 day
[5] = biological target: T1, von Hippel-Lindau disease tumor suppressor/Focal adhesion kinase 1; test: Protac activity at VHL/PTK2 in human Hep3B2.1-7 cells assessed as time required for maximal induction of PTK2 degradation at 3 uM incubated for up to 80 hrs by protein capillary electrophoresis method; details: time hrs <=80
Target sequence in this assay (P40337 whole entry partner): as the sequence (P40337 whole entry) above
Target sequence in this assay (Q05397 2-1052 limits assumed): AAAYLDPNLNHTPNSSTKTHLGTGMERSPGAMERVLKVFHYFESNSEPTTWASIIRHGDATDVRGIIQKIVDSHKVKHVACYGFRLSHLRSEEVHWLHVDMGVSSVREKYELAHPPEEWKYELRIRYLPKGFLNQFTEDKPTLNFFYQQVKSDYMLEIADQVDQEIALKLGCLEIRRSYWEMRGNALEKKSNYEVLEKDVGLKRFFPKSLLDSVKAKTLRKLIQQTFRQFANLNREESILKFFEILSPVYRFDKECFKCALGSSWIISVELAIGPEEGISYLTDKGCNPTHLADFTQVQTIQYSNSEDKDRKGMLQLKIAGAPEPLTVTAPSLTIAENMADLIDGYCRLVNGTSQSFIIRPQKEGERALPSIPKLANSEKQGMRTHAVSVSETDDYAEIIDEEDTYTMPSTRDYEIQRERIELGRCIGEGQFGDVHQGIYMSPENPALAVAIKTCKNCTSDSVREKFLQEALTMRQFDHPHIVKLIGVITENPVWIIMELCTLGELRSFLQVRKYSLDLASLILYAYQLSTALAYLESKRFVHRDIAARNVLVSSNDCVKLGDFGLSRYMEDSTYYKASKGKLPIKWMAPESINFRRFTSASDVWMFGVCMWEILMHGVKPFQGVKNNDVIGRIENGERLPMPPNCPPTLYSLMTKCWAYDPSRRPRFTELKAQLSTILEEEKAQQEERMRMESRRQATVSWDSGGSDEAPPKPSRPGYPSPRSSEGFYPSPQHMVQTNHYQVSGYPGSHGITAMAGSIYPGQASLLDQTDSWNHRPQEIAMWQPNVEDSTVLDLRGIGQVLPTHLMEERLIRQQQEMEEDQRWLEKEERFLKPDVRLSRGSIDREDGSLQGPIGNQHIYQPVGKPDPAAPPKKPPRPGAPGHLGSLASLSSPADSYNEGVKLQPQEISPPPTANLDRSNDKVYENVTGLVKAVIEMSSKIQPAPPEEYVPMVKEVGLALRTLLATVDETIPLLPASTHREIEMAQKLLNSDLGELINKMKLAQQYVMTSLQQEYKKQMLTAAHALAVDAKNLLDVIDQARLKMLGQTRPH

[6] = tested on: SNU-398; test: Antiproliferative activity against human SNU-398 cells incubated for 7 to 14 days by methylene blue dye based anchorage independent growth assay; assay type: functional, cell-based; details: time 7-14 day
[7] = tested on: HLF1; test: Antiproliferative activity against human HLF1 cells incubated for 7 to 14 days by methylene blue dye based anchorage independent growth assay; assay type: functional, cell-based; details: time 7-14 day
[8] = cells; details: Homo sapiens, HuH-1, 144 h, read-out: pIC50 (converted)
Description: Antiproliferative activity against human HuH-1 cells incubated for 6 days by CellTiter-Glo luminescent cell viability assay

[9] = tested on: A549; test: Antiproliferative activity against C32 in human A549 cells at 3 uM incubated for 21 day; assay type: functional, cell-based
[10] = tested on: A549; test: Induction of general kinase degradation in human A549 cells at 3 uM incubated for 18 hrs by mass spectrometry based total proteome analysis; assay type: functional, cell-based
[11] = biological target: Focal adhesion kinase 1 (Homo sapiens, UniProt Q05397); test: Inhibition of human PTK2 (411-689 residues) expressed in Hi-5 cells
[12] = tested on: HepG2; test: cells; details: Homo sapiens, HepG2, 144 h, read-out: pIC50 (converted)
Description: Antiproliferative activity against human HepG2 cells incubated for 6 days by CellTiter-Glo luminescent cell viability assay

[13] = tested on: SNU-387; test: cells; details: Homo sapiens, SNU-387, 144 h, read-out: pIC50 (converted)
Description: Antiproliferative activity against human SNU-387 cells incubated for 6 days by CellTiter-Glo luminescent cell viability assay

[14] = tested on: C32; test: Antiproliferative activity against C32 in human […] cells at 3 uM incubated for 21 days; assay type: functional, cell-based; details: time 21.0 day
[15] = tested on: CFPAC-1; test: Antiproliferative activity against C32 in human CFPAC-1 cells at 3 uM incubated for 21 day; assay type: functional, cell-based
[16] = cells; details: Homo sapiens, Hep3B, 144 h, read-out: pIC50 (converted)
Description: Antiproliferative activity against human Hep3B2.1-7 cells incubated for 6 days by CellTiter-Glo luminescent cell viability assay

[17] = biological target: Retinal rod rhodopsin-sensitive cGMP 3',5'-cyclic phosphodiesterase subunit delta (Homo sapiens) (UniProt O43924); test: Induction of PDE6D degradation in human A549 cells at 100 nM to 10000 nM incubated for 18 hrs by immunoblot analysis based protein capillary electrophoresis; assay type: cell-based
[18] = tested on: HSC-3; test: Antiproliferative activity against HSC-3 in human […] cells at 3 uM incubated for 21 days; assay type: functional, cell-based; details: time 21.0 day
[19] = tested on: HepG2; test: Antiproliferative activity against human HepG2 cells incubated for 7 to 14 days by methylene blue dye based anchorage independent growth assay; assay type: functional, cell-based; details: time 7-14 day
[20] = tested on: SK-HEP1; test: cells; details: Homo sapiens, SK-HEP1, 144 h, read-out: pIC50 (converted)
Description: Antiproliferative activity against human SK-HEP1 cells incubated for 6 days by CellTiter-Glo luminescent cell viability assay

[21] = Fraction unbound in 10% FCS; assay type: ADME, cell-free, Bos taurus; details: cattle, 10% fetal calf serum (FCS)
[22] = Permeability in human Caco-2 cells; assay type: ADME, cell-based
[23] = tested on: Hep3B; test: Antiproliferative activity against human Hep3B2.1-7 cells incubated for 7 to 14 days by methylene blue dye based anchorage independent growth assay; assay type: functional, cell-based; details: time 7-14 day
[24] = tested on: HuCCT-1; test: Antiproliferative activity against human HuCCT-1 cells incubated for 7 to 14 days by methylene blue dye based anchorage independent growth assay; assay type: functional, cell-based; details: time 7-14 day
[25] = tested on: Huh-7; test: cells; details: Homo sapiens, Huh-7, 144 h, read-out: pIC50 (converted)
Description: Antiproliferative activity against human Huh-7 cells incubated for 6 days by CellTiter-Glo luminescent cell viability assay

[26] = tested on: HuH-1; test: Antiproliferative activity against human HuH-1 cells incubated for 7 to 14 days by methylene blue dye based anchorage independent growth assay; assay type: functional, cell-based; details: time 7-14 day
[27] = biological target: Retinal rod rhodopsin-sensitive cGMP 3',5'-cyclic phosphodiesterase subunit delta (Homo sapiens) (UniProt O43924); test: Induction of PDE6D degradation in human A549 cells at 3 uM incubated for 18 hrs by mass spectrometry based total proteome analysis; assay type: cell-based
[28] = tested on: SNU-423; test: cells; details: Homo sapiens, SNU-423, 144 h, read-out: pIC50 (converted)
Description: Antiproliferative activity against human SNU-423 cells incubated for 6 days by CellTiter-Glo luminescent cell viability assay

[29] = tested on: SNU-423; test: Antiproliferative activity against human SNU-423 cells incubated for 7 to 14 days by methylene blue dye based anchorage independent growth assay; assay type: functional, cell-based; details: time 7-14 day
[30] = tested on: HLE; test: cells; details: Homo sapiens, 144 h, read-out: pIC50 (converted)
Description: Antiproliferative activity against human HLE cells incubated for 6 days by CellTiter-Glo luminescent cell viability assay

[31] = tested on: SNU-398; test: cells; details: Homo sapiens, SNU-398, 144 h, read-out: pIC50 (converted)
Description: Antiproliferative activity against human SNU-398 cells incubated for 6 days by CellTiter-Glo luminescent cell viability assay

[32] = biological target: T1, von Hippel-Lindau disease tumor suppressor/Focal adhesion kinase 1; test: Protac activity at VHL/PTK2 in human HLF1 cells assessed as induction of PTK2 degradation incubated for 18 hrs by protein capillary electrophoresis method relative to control; assay type: cell-based
Target sequence in this assay (P40337 whole entry partner): as the sequence (P40337 whole entry) above
Target sequence in this assay (Q05397 2-1052 limits assumed): as the sequence (Q05397 2-1052 limits assumed) above

[33] = tested on: SK-HEP1; test: Antiproliferative activity against human SK-HEP1 cells incubated for 7 to 14 days by methylene blue dye based anchorage independent growth assay; assay type: functional, cell-based; details: time 7-14 day
[34] = tested on: Huh-7; test: Antiproliferative activity against human Huh-7 cells incubated for 7 to 14 days by methylene blue dye based anchorage independent growth assay; assay type: functional, cell-based; details: time 7-14 day
[35] = biological target: T1, von Hippel-Lindau disease tumor suppressor/Focal adhesion kinase 1; test: Protac activity at VHL/PTK2 in human Huh-7 cells assessed as induction of PTK2 degradation incubated for 18 hrs by protein capillary electrophoresis method relative to control; assay type: cell-based
Target sequence in this assay (P40337 whole entry partner): as the sequence (P40337 whole entry) above
Target sequence in this assay (Q05397 2-1052 limits assumed): as the sequence (Q05397 2-1052 limits assumed) above

[36] = cells; details: Homo sapiens, HLF1, 144 h, read-out: pIC50 (converted)
Description: Antiproliferative activity against human HLF1 cells incubated for 6 days by CellTiter-Glo luminescent cell viability assay

[37] = Stability in EMEM cell assay buffer containing 10% FCS; assay type: physicochemical; details: cattle
[38] = biological target: T2, Protein cereblon/Focal adhesion kinase 1 (Homo sapiens, UniProt Q05397+Q96SW2); test: Protac activity at CRBN/PTK2 in human Hep3B2.1-7 cells assessed as induction of PTK2 degradation incubated for 18 hrs by protein capillary electrophoresis method relative to control; assay type: cell-based; details: Hep3B
Target sequence in this assay (Q05397 2-1052 limits assumed): as above
Target sequence in this assay (Q96SW2 whole entry partner): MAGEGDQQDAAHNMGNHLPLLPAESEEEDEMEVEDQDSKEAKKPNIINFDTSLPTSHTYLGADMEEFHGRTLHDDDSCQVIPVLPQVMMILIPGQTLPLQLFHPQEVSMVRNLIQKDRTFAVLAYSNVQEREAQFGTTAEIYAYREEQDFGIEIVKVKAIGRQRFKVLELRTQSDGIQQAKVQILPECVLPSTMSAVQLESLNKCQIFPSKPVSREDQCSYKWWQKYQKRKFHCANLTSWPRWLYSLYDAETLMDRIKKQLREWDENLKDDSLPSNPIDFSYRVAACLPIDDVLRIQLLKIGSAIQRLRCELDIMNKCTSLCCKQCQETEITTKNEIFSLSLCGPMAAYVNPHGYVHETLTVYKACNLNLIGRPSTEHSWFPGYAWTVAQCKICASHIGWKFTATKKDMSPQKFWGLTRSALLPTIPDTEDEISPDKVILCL

[39] = biological target: T2, Protein cereblon/Focal adhesion kinase 1; test: Protac activity at CRBN/PTK2 in human SNU-423 cells assessed as induction of PTK2 degradation incubated for 18 hrs by protein capillary electrophoresis method; assay type: cell-based
Target sequence in this assay (Q05397 whole entry): as the sequence (Q05397 whole entry) above
Target sequence in this assay (Q96SW2 whole entry): as the sequence (Q96SW2 whole entry partner) above

[40] = biological target: T2, Protein cereblon/Focal adhesion kinase 1; test: Protac activity at CRBN/PTK2 in human HLF1 cells assessed as induction of PTK2 degradation incubated for 18 hrs by protein capillary electrophoresis method; assay type: cell-based
Target sequence in this assay (Q05397 whole entry): as the sequence (Q05397 whole entry) above
Target sequence in this assay (Q96SW2 whole entry): as the sequence (Q96SW2 whole entry partner) above

[41] = biological target: T2, Protein cereblon/Focal adhesion kinase 1; test: Protac activity at CRBN/PTK2 in human Hep3B2.1-7 cells assessed as induction of PTK2 degradation incubated for 18 hrs in presence of Cyclosporine A by protein capillary electrophoresis method relative to control; assay type: cell-based; details: Hep3B
Target sequence in this assay (Q05397 2-1052 limits assumed): as the sequence (Q05397 2-1052 limits assumed) above
Target sequence in this assay (Q96SW2 whole entry partner): as the sequence (Q96SW2 whole entry partner) above

Retinal rod rhodopsin-sensitive cGMP 3',5'-cyclic phosphodiesterase subunit delta (Homo sapiens), sequence (O43924 whole entry): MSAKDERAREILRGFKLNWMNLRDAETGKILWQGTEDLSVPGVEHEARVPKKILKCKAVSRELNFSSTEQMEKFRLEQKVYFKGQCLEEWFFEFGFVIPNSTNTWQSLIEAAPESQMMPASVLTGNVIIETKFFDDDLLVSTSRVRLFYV
Focal adhesion kinase 1, sequence (Q05397 whole entry, the tested form may be a part): as the sequence (Q05397 whole entry) above

COc1cc(C(=O)NCCOCCOCCOCC(=O)N[C@H](C(=O)N2C[C@H](O)C[C@H]2C(=O)NCc2ccc(-c3scnc3C)cc2)C(C)(C)C)ccc1Nc1ncc(C(F)(F)F)c(Oc2cccc3c2C(=O)CC3)n1
Activity [1]: inactive
pDC50 [2]: 7.6
IC50 [3]: 6.31 µM
Activity [4]: inactive
TIME [5]: 20 h
Activity [6]: inactive
Activity [7]: inactive
IC50 [8]: 20 µM
Activity [9]: inactive
Activity [10]: inactive
IC50 [11]: 0.019 µM
IC50 [12]: > 25.1 µM
IC50 [13]: 5.01 µM
Activity [14]: inactive
Activity [15]: inactive
IC50 [16]: 6.31 µM
Activity [17]: Active
Activity [18]: inactive
Activity [19]: inactive
IC50 [20]: 7.94 µM
fraction unbound [21]: 0.113
permeability [22]: Impermeable
Activity [23]: inactive
Activity [24]: inactive
IC50 [25]: 3.98 µM
Activity [26]: inactive
Activity [27]: Active
IC50 [28]: 6.31 µM
Activity [29]: inactive
IC50 [30]: 10 µM
IC50 [31]: 7.94 µM
Emax [32]: 66%
Activity [33]: inactive
Activity [34]: inactive
Emax [35]: 79%
IC50 [36]: > 25.1 µM
Stabilty [37]: Stable

COc1cc(C(=O)NCCOCCOCCOCCC(=O)Nc2cccc3c2C(=O)N(C2CCC(=O)NC2=O)C3=O)ccc1Nc1ncc(C(F)(F)F)c(Oc2cccc3c2C(=O)CC3)n1 (centres undefined)
Activity [1]: inactive
IC50 [3]: > 25.1 µM
Activity [4]: inactive
Activity [6]: inactive
Activity [7]: inactive
IC50 [8]: 25.1 µM
Emax [38]: 96%
Activity [9]: inactive
Activity [10]: inactive
IC50 [11]: 0.018 µM
IC50 [12]: > 25.1 µM
IC50 [13]: > 25.1 µM
Activity [14]: inactive
Activity [15]: inactive
IC50 [16]: 25.1 µM
pDC50 [39]: 7.9
pDC50 [40]: 6.4
Activity [17]: inactive
Activity [18]: inactive
Activity [19]: inactive
IC50 [20]: 1.58 µM
fraction unbound [21]: 0.04
permeability [22]: Impermeable
Activity [23]: inactive
Emax [41]: 94%
Activity [24]: inactive
IC50 [25]: > 25.1 µM
Activity [26]: inactive
Activity [27]: inactive
IC50 [28]: 20 µM
Activity [29]: inactive
IC50 [30]: > 25.1 µM
IC50 [31]: > 25.1 µM
Activity [33]: inactive
Activity [34]: inactive
IC50 [36]: > 25.1 µM
Stabilty [37]: Unstable
